In US8323674B2, “Synergistic biocide composition comprising 2-methylisothiazoline-3-one” (Thor GmbH, priority 2000, dated 2012):

Key:
Assay type in all cases: cell-based
[1] = tested on: Pseudomonas aeruginosa; experiment: MIC and synergistic index of MIT + ZnPy in Müller-Hinton broth, 72 h/25° C.; details: for MIC value: only one biocide employed
Protocol: (§1) The synergistic index is calculated by the method of F. C. Kull et al., Applied Microbiology, vol. 9 (1961), p. 538. Here, the synergistic index is calculated using the following formula: Synergistic index SI=Qa/QA+Qb/QB.
(§2) If the synergistic index has a value of above 1, this means that antagonism is present. If the synergistic index assumes a value of 1, this means that an additive effect of the two biocides exists. If the synergistic index assumes a value of less than 1, this means that synergism of the two biocides exists.
(§3) Again, the experimental batches contained a Müller-Hinton broth as the nutrient medium. The cell density was 10^6 cells/ml. The incubation time was 72 hours at 25° C. Each sample was incubated in a shaker-incubator at 120 rpm.

[2] = tested on: Pseudomonas aeruginosa; experiment: MIC and synergistic index of MIT + HCHO in Müller-Hinton broth, 96 h/25° C.; details: for MIC: Pseudomonas aeruginosa; for Synergistic index Qa/QA + Qb/QB: method of Kull
Protocol: In addition to the biocide component and water, the aqueous mixtures also comprised a nutrient medium, viz. a commercially available Müller-Hinton broth. The cell density was 10^6 cells/ml. The incubation time was 96 hours at 25° C. Each sample was incubated in a shaker-incubator at 120 rpm.
as §1, §2

[3] = tested on: Pseudomonas aeruginosa; experiment: MIC and synergistic index of MIT + NaPy in Müller-Hinton broth, 96 h/25° C.; details: for MIC value: only one biocide employed
Protocol: as §1, §2
Again, the experimental batches contained a Müller-Hinton broth as the nutrient medium. The cell density was 10^6 cells/ml. The incubation time was 96 hours at 25° C. Each sample was incubated in a shaker-incubator at 120 rpm.

[4] = tested on: Pseudomonas aeruginosa; experiment: MIC and synergistic index of MIT + PMG in Müller-Hinton broth, 48 h/25° C.; details: for MIC value: only one biocide employed
Protocol: as §1, §2
Again, the experimental batches contained a Müller-Hinton broth as the nutrient medium. The cell density was 10^6 cells/ml. The incubation time was 48 hours at 25° C. Each sample was incubated in a shaker-incubator at 120 rpm.

[5] = tested on: Pseudomonas aeruginosa; experiment: MIC and synergistic index of MIT + BBIT in Müller-Hinton broth, 72 h/25° C.; details: for Synergistic index Qa/QA + Qb/QB: BBIT MIC of 500 ppm used as basis; for MIC value: only one biocide employed
Protocol: as §1, §2, §3

[6] = tested on: Pseudomonas aeruginosa; experiment: MIC and synergistic index of MIT + OPP in Müller-Hinton broth, 72 h/25° C.; details: for MIC: Pseudomonas aeruginosa, 72 h
Protocol: as §1, §2, §3

[7] = tested on: Pseudomonas aeruginosa; experiment: MIC and synergistic index of MIT + HMBIT in Müller-Hinton broth, 48 h/30° C.; details: for MIC value: biocide used alone, 48 hours at 30° C.
Protocol: as §1, §2
Again, the experimental batches contained a Müller-Hinton broth as nutrient medium. The cell density was 10^6 microorganisms/ml. […] Each sample was incubated in a shaker-incubator at 120 rpm.

[8] = tested on: Pseudomonas aeruginosa; experiment: MIC and synergistic index of MIT + BNP in Müller-Hinton broth, 72 h/25° C.; details: for MIC: Pseudomonas aeruginosa
Protocol: as §1, §2, §3

[9] = tested on: Pseudomonas aeruginosa; experiment: MIC and synergistic index of MIT + BAC in Müller-Hinton broth, 48 h/25° C.; details: for MIC value: biocide used alone
Protocol: as §1, §2
Again, the experimental batches contained a Müller-Hinton broth as nutrient medium. The cell density was 10^6 microorganisms/ml. The incubation time was 48 hours at 25° C. Each sample was incubated in a shaker-incubator at 120 rpm.

[10] = Pseudomonas aeruginosa, incubation 48 h/25° C.

Compound: zinc pyrithione [ZnPy]
- MIC at Total concentration MIT + ZnPy Qa + Qb ([1]; 72 h/25° C.): 100 ppm
- Qb/QB ([1]; 72 h/25° C., QB = 100 ppm used as basis): 1.00
- Synergistic index Qa/QA + Qb/QB ([1]; 72 h/25° C., ZnPy MIC of 100 ppm used as basis): 1.00
- MIC at ZnPy concentration Qb ([1]; 72 h/25° C., for ZnPy alone 100 ppm used as the basis for the calculation): 100 ppm
- MIC value ([1]; 72 h/25° C.): over 100 ppm

Compound: C=O [HCHO, formaldehyde]
- Qb/QB [2]: 1.00
- MIC ([2]; only one biocide used, read-out: MIC value): 100 µg/mL
- MIC ([2]; read-out: MIC at HCHO concentration Qb): 100 µg/mL
- MIC ([2]; read-out: MIC at Total concentration of MIT + HCHO Qa + Qb): 100 µg/mL
- Synergistic index Qa/QA + Qb/QB [2]: 1.00

Compound: Cn1sccc1=O [MIT, 2-methylisothiazolin-3-one]
- MIC at MIT concentration Qa [3]: 60 ppm
- MIC at Total concentration MIT + NaPy Qa + Qb [3]: 60 ppm
- Qa/QA [3]: 1.00
- Synergistic index Qa/QA + Qb/QB [3]: 1.00
- MIC value [3]: 60 ppm
- MIC at MIT concentration Qa [2]: 60 ppm
- MIC at Total concentration of MIT + HCHO Qa + Qb [2]: 60 ppm
- Qa/QA [2]: 1.00
- Synergistic index Qa/QA + Qb/QB [2]: 1.00
- MIC value ([2]; only one biocide used): 60 ppm
- MIC at MIT concentration Qa [4]: 40 ppm
- MIC at Total concentration MIT + PMG Qa + Qb [4]: 40 ppm
- Qa/QA [4]: 1.00
- Synergistic index Qa/QA + Qb/QB [4]: 1.00
- MIC value [4]: 40 ppm
- MIC at MIT concentration Qa [5]: 40 ppm
- MIC at Total concentration MIT + BBIT Qa + Qb [5]: 40 ppm
- Qa/QA [5]: 1.00
- Synergistic index Qa/QA + Qb/QB [5]: 1.00
- MIC value [5]: 40 ppm
- MIC at MIT concentration Qa ([6]; 72 h/25° C.): 40 ppm
- MIC at Total concentration MIT + OPP Qa + Qb ([6]; 72 h/25° C.): 40 ppm
- Qa/QA ([6]; 72 h/25° C.): 1.00
- Synergistic index Qa/QA + Qb/QB ([6]; 72 h/25° C.): 1.00
- MIC value ([6]; only one biocide employed, 72 h/25° C.): 40 ppm
- MIC at MIT concentration Qa [7]: 50 ppm
- MIC at Total concentration MIT + HMBIT Qa + Qb [7]: 50 ppm
- Qa/QA [7]: 1.00
- Synergistic index Qa/QA + Qb/QB [7]: 1.00
- MIC value [7]: 50 ppm
- Synergistic index Qa/QA + Qb/QB [1]: 1.00
- MIC at MIT concentration Qa ([1]; 72 h/25° C.): 40 ppm
- MIC at Total concentration MIT + ZnPy Qa + Qb ([1]; 72 h/25° C.): 40 ppm
- Qa/QA ([1]; 72 h/25° C.): 1.00
- MIC value ([1]; 72 h/25° C.): 40 ppm
- MIC at MIT concentration Qa [8]: 40 ppm
- MIC at Total concentration of MIT + BNP Qa + Qb [8]: 40 ppm
- Qa/QA [8]: 1.00
- Synergistic index Qa/QA + Qb/QB [8]: 1.00
- MIC value ([8]; only one biocide employed): 40 ppm
- Qa/QA ([9]; MIT concentration in mixture at MIC / MIC of MIT alone (40 ppm), 48 h/25° C.): 1.00
- MIC at MIT concentration Qa ([9]; MIT share of the MIC of the MIT + BAC mixture, Pseudomonas aeruginosa, incubation 48 h/25° C.): 40 ppm
- MIC at Total concentration MIT + BAC Qa + Qb [9, 10]: 40 ppm
- Synergistic index Qa/QA + Qb/QB [9, 10]: 1.00
- MIC value ([9]; 48 h/25° C.): 40 ppm

Compound: [Na+].[O-][n+]1ccccc1[S-] [NaPy, sodium pyrithione]
- MIC at NaPy concentration Qb [3]: 200 ppm
- MIC at Total concentration MIT + NaPy Qa + Qb [3]: 200 ppm
- Qb/QB [3]: 1.00
- Synergistic index Qa/QA + Qb/QB [3]: 1.00
- MIC value [3]: 200 ppm

Compound: dimethylbenzylalkonium chloride [BAC]
- Qb/QB ([9]; BAC concentration in mixture at MIC / MIC of BAC alone (80 ppm), 48 h/25° C.): 1.00
- MIC at BAC concentration Qb ([9]; BAC share of the MIC of the MIT + BAC mixture, Pseudomonas aeruginosa, incubation 48 h/25° C.): 80 ppm
- MIC at Total concentration MIT + BAC Qa + Qb [9, 10]: 80 ppm
- Synergistic index Qa/QA + Qb/QB [9, 10]: 1.00
- MIC value ([9]; 48 h/25° C.): 80 ppm

Compound: CCCCn1sc2ccccc2c1=O [BBIT, N-butyl-1,2-benzoisothiazolin-3-one]
- MIC at Total concentration MIT + BBIT Qa + Qb [5]: 500 ppm
- Synergistic index Qa/QA + Qb/QB [5]: 1.00
- Qb/QB ([5]; QB = 500 ppm used as basis): 1.00
- MIC at BBIT concentration Qb ([5]; for BBIT alone 500 ppm used as the basis for the calculation): 500 ppm
- MIC value [5]: over 500 ppm

Compound: polyhexamethylenebiguanide [PMG]
- MIC at PMG concentration Qb [4]: 30 ppm
- MIC at Total concentration MIT + PMG Qa + Qb [4]: 30 ppm
- Qb/QB [4]: 1.00
- Synergistic index Qa/QA + Qb/QB [4]: 1.00
- MIC value [4]: 30 ppm

Compound: N-hydroxymethyl-1,2-benzoisothiazolin-3-one [HMBIT]
- MIC at HMBIT concentration Qb [7]: 150 ppm
- MIC at Total concentration MIT + HMBIT Qa + Qb [7]: 150 ppm
- Qb/QB [7]: 1.00
- Synergistic index Qa/QA + Qb/QB [7]: 1.00
- MIC value [7]: 150 ppm

Compound: Oc1ccccc1-c1ccccc1 [OPP, o-phenylphenol]
- Qb/QB ([6]; 72 h/25° C.): 1.00
- Synergistic index Qa/QA + Qb/QB ([6]; 72 h/25° C.): 1.00
- MIC ([6]; read-out: MIC at OPP concentration Qb): 750 µg/mL
- MIC ([6]; read-out: MIC at Total concentration MIT + OPP Qa + Qb): 750 µg/mL
- MIC ([6]; read-out: MIC value): 750 µg/mL

Compound: O=[N+]([O-])C(Br)(CO)CO [BNP, 2-bromo-2-nitro-1,3-propanediol]
- Qb/QB [8]: 1.00
- Synergistic index Qa/QA + Qb/QB [8]: 1.00
- MIC ([8]; only one biocide employed, read-out: MIC value): 20 µg/mL
- MIC ([8]; read-out: MIC at BNP concentration Qb): 20 µg/mL
- MIC ([8]; read-out: MIC at Total concentration of MIT + BNP Qa + Qb): 20 µg/mL
